US11224604B2, “Treatment of graft versus host disease in transplant patients” (PRIOTHERA LIMITED, priority 2013, dated 2022)

System: lethal GvHD in mice
Assay: lethal GvHD in mice (BALB/c splenic cells into cyclophosphamide-treated BDF1 mice)
Assay type: in vivo
Conditions: day 1 to day 20
Description: Female BALB/cAnNCrj mice and female Crj:BDF1 mice were purchased from CHARLES RIVER JAPAN and used at 10 weeks of age as donors and recipients, respectively.
Spleens were collected from donor BALB/c mice. […] The single cell suspension was passed through a cell strainer (70 um, FALCON). The filtrate was centrifuged to collect the cell pellet. […] The number of nucleated cells in the suspension was calculated by staining using Turk's solution. […] This suspension served as a splenic cell suspension.
Recipient BDF1 mice were treated with a dose of cyclophosphamide (SHIONOGI & CO., LTD.) at 300 mg/kg intraperitoneally on day0. One day after cyclophosphamide treatment, the BDF1 mice were intravenously injected with 0.25 mL
(5×10^7 cells/mouse) of the splenic cell suspension from BALB/c mice to induce lethal GvHD.
Treatment with a Compound (Control/CsA/KRP203)
The compounds were orally administrated once a day from day 1 (just after injection of the splenic cells) to day 20. The mice were observed until day 70.

Measured: % Survival

NC(CO)(CO)CCc1ccc(Sc2cccc(OCc3ccccc3)c2)cc1Cl [KRP-203, 2-amino-2-[4-(3-benzyloxyphenylthio)-2-chlorophenyl]ethyl-propane-1,3-diol]
33%: KRP-203 0.01 mg/kg orally once a day, Day 40 after injection of the splenic cells | KRP-203 0.01 mg/kg orally once a day, Day 70 after injection of the splenic cells
67%: KRP-203 0.01 mg/kg orally once a day, Day 10 after injection of the splenic cells
89%: KRP-203 0.01 mg/kg orally once a day, Day 8 after injection of the splenic cells
44%: KRP-203 0.01 mg/kg orally once a day, Day 12 after injection of the splenic cells | KRP-203 0.01 mg/kg orally once a day, Day 20 after injection of the splenic cells | KRP-203 0.01 mg/kg orally once a day, Day 25 after injection of the splenic cells | KRP-203 0.01 mg/kg orally once a day, Day 30 after injection of the splenic cells
100%: KRP-203 0.01 mg/kg orally once a day, Day 5 after injection of the splenic cells | KRP-203 0.03 mg/kg orally once a day, Day 5 after injection of the splenic cells | KRP-203 0.03 mg/kg orally once a day, Day 8 after injection of the splenic cells | KRP-203 0.03 mg/kg orally once a day, Day 10 after injection of the splenic cells | KRP-203 0.03 mg/kg orally once a day, Day 12 after injection of the splenic cells | KRP-203 0.03 mg/kg orally once a day, Day 20 after injection of the splenic cells | KRP-203 0.03 mg/kg orally once a day, Day 25 after injection of the splenic cells | KRP-203 0.03 mg/kg orally once a day, Day 30 after injection of the splenic cells | KRP-203 0.03 mg/kg orally once a day, Day 40 after injection of the splenic cells | KRP-203 0.03 mg/kg orally once a day, Day 70 after injection of the splenic cells | KRP-203 0.1 mg/kg orally once a day, Day 5 after injection of the splenic cells | KRP-203 0.1 mg/kg orally once a day, Day 8 after injection of the splenic cells | KRP-203 0.1 mg/kg orally once a day, Day 10 after injection of the splenic cells | KRP-203 0.1 mg/kg orally once a day, Day 12 after injection of the splenic cells | KRP-203 0.1 mg/kg orally once a day, Day 20 after injection of the splenic cells | KRP-203 0.1 mg/kg orally once a day, Day 25 after injection of the splenic cells | KRP-203 0.1 mg/kg orally once a day, Day 30 after injection of the splenic cells | KRP-203 0.1 mg/kg orally once a day, Day 40 after injection of the splenic cells | KRP-203 0.1 mg/kg orally once a day, Day 70 after injection of the splenic cells | KRP-203 0.3 mg/kg orally once a day, Day 5 after injection of the splenic cells | KRP-203 0.3 mg/kg orally once a day, Day 8 after injection of the splenic cells | KRP-203 0.3 mg/kg orally once a day, Day 10 after injection of the splenic cells | KRP-203 0.3 mg/kg orally once a day, Day 12 after injection of the splenic cells | KRP-203 0.3 mg/kg orally once a day, Day 20 after injection of the splenic cells | KRP-203 0.3 mg/kg orally once a day, Day 25 after injection of the splenic cells | KRP-203 0.3 mg/kg orally once a day, Day 30 after injection of the splenic cells | KRP-203 0.3 mg/kg orally once a day, Day 40 after injection of the splenic cells | KRP-203 0.3 mg/kg orally once a day, Day 70 after injection of the splenic cells | KRP-203 1 mg/kg orally once a day, Day 5 after injection of the splenic cells | KRP-203 1 mg/kg orally once a day, Day 8 after injection of the splenic cells | KRP-203 1 mg/kg orally once a day, Day 10 after injection of the splenic cells | KRP-203 1 mg/kg orally once a day, Day 12 after injection of the splenic cells | KRP-203 1 mg/kg orally once a day, Day 20 after injection of the splenic cells | KRP-203 1 mg/kg orally once a day, Day 25 after injection of the splenic cells | KRP-203 1 mg/kg orally once a day, Day 30 after injection of the splenic cells | KRP-203 1 mg/kg orally once a day, Day 40 after injection of the splenic cells | KRP-203 1 mg/kg orally once a day, Day 70 after injection of the splenic cells
